Measurements reported in ChEMBL document CHEMBL1201862, “PubChem BioAssay data set” (2004).
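Interpolation was linear, between the two tested concentrations surrounding the appropriate level; five concentrations were tested over 48 hours in 96-well plates. GI50 is the concentration that inhibits growth by half.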 The source made the active and inactive calls. Cut-off read from the data, not from the text of the source: active = GI50 up to about 1.1 µM and inactive = higher. Non-standard residues stand in square brackets, D forms with d. Residues, ends and D or L forms follow the SMILES beside them. ξ: configuration not given here. *: point of attachment. ξHyp = O=C(O)C1CC(O)CN1; Cbz = O=C(OCc1ccccc1)*

Key:
Experiment in all cases: inhibition of tumour cell growth, NCI panel, 48 h
[1] = system: MOLT-4
[2] = system: K562
[3] = system: UO-31
[4] = system: MCF7
[5] = system: HCC 2998
[6] = system: TK-10
[7] = system: A498
[8] = system: OVCAR-3
[9] = system: 786-0
[10] = system: M14
[11] = system: HL-60
[12] = system: LOX IMVI
[13] = system: NCI/ADR-RES
[14] = system: U-251
[15] = system: RXF 393
[16] = system: BT-549
[17] = system: IGROV-1
[18] = system: SN12C
[19] = system: SF-539
[20] = system: CAKI-1

Measured: GI50

NC(=O)CNC(=O)C1CC(O)CN1C(=O)OCc1ccccc1 (configuration not stated) (Cbz-[ξHyp]-Gly-NH2)
inactive: [1] > 100 µM | [2] > 100 µM | [3] > 100 µM | [4] > 100 µM | [5] > 100 µM | [6] > 100 µM | [7] > 100 µM | [8] > 100 µM | [9] > 100 µM | [10] > 100 µM | [11] > 100 µM | [12] > 100 µM | [13] > 100 µM | [14] > 100 µM | [15] > 100 µM | [16] > 100 µM | [17] > 100 µM | [18] > 100 µM

CCNC1=C(NC(=O)c2ccc(F)cc2)C(=O)c2ccccc2C1=O
inactive: [19] 72.1 µM | [1] 30.1 µM | [2] 65.8 µM | [4] 30.3 µM | [5] 34.8 µM | [6] > 100 µM | [8] 36.6 µM | [9] > 100 µM | [10] 24.5 µM | [11] 40.3 µM | [13] 27.3 µM | [15] 29.4 µM | [16] > 100 µM | [17] 31.6 µM | [18] 38.7 µM

CC1CNc2ccccc2N=C1NN (configuration not stated)
inactive: [19] > 100 µM | [20] > 100 µM | [2] > 100 µM | [3] > 100 µM | [4] > 100 µM | [5] > 100 µM | [6] > 100 µM | [7] > 100 µM | [8] > 100 µM | [9] > 100 µM | [10] > 100 µM | [12] > 69.8 µM | [13] > 100 µM | [14] > 100 µM | [15] > 100 µM | [16] > 100 µM | [17] > 100 µM | [18] > 100 µM

O=C(O)C(Br)C(Br)c1ccccc1[N+](=O)[O-] (configuration not stated)
inactive: [19] > 100 µM | [20] > 100 µM | [2] > 100 µM | [3] 5.46 µM | [4] > 100 µM | [5] > 100 µM | [6] > 100 µM | [7] > 100 µM | [8] 46.9 µM | [9] > 100 µM | [10] > 100 µM | [12] > 100 µM | [13] > 100 µM | [14] > 100 µM | [15] > 100 µM | [16] > 100 µM | [17] > 100 µM | [18] > 100 µM

O=C(c1ccccn1)C1(N2CCCCC2)CCCCC1
inactive: [19] > 100 µM | [20] > 100 µM | [1] > 100 µM | [2] > 100 µM | [3] > 100 µM | [4] > 100 µM | [5] > 100 µM | [6] > 100 µM | [7] > 100 µM | [8] > 100 µM | [9] > 100 µM | [10] > 100 µM | [11] 88.3 µM | [12] > 100 µM | [13] 46.5 µM | [14] > 100 µM | [16] > 100 µM | [17] 87.7 µM | [18] > 100 µM

COc1ccc(NC(=O)/C(=N/NC(N)=S)C2C(=O)NC(=S)NC2=O)c(OC)c1
inactive: [19] > 100 µM | [20] > 100 µM | [1] > 100 µM | [2] > 100 µM | [3] > 100 µM | [4] > 100 µM | [5] > 100 µM | [6] > 100 µM | [7] > 100 µM | [8] > 100 µM | [9] > 100 µM | [10] > 100 µM | [11] > 100 µM | [12] > 100 µM | [13] > 100 µM | [14] > 100 µM | [16] > 100 µM | [17] > 100 µM | [18] > 100 µM

CN(C)/C=N/[C@@H](C(=O)O)c1ccccc1
inactive: [1] > 100 µM | [2] > 100 µM | [3] > 100 µM | [4] > 100 µM | [5] > 100 µM | [6] > 100 µM | [7] > 100 µM | [8] > 100 µM | [9] > 100 µM | [10] > 100 µM | [11] > 100 µM | [12] > 100 µM | [13] > 100 µM | [14] > 100 µM | [16] > 100 µM | [17] > 100 µM | [18] > 100 µM

CC(C)C1CC[C@H](C)C[C@@H]1OC(=O)C(C(=O)O[C@H]1C[C@@H](C)CCC1C(C)C)C(O)[C@@H]1OC(C)(C)O[C@H]1C1COC(C)(C)O1 (some centres not stated)
inactive: [19] 26.8 µM | [20] 16.3 µM | [1] 10.7 µM | [2] 11.1 µM | [3] 17.3 µM | [4] 8.13 µM | [5] 13.8 µM | [6] 20 µM | [8] 19.9 µM | [9] 16.6 µM | [10] 19 µM | [11] 16.7 µM | [12] 16.8 µM | [13] 20.4 µM | [14] 14.2 µM | [15] 14.7 µM | [16] 19 µM | [17] 16.8 µM | [18] 16.5 µM

COC(=N)CCCl
inactive: [19] > 100 µM | [20] > 100 µM | [1] > 100 µM | [2] > 100 µM | [3] > 100 µM | [4] > 100 µM | [5] > 100 µM | [6] > 100 µM | [8] > 100 µM | [9] > 100 µM | [10] > 100 µM | [11] > 100 µM | [13] > 100 µM | [14] > 100 µM | [15] > 100 µM | [16] > 100 µM | [17] > 100 µM | [18] > 100 µM

O=C1C(Cl)C(c2cccc(Cl)c2)N1c1ccc(-n2c(S)nc3ccccc3c2=O)cc1 (configuration not stated)
inactive: [19] 20 µM | [20] 34.7 µM | [1] 14 µM | [2] 17.9 µM | [3] 20 µM | [4] 14.7 µM | [5] 14.4 µM | [6] 29.6 µM | [8] 30.5 µM | [9] 19 µM | [10] 19.5 µM | [11] 22.1 µM | [12] 13.9 µM | [13] 25.8 µM | [14] 13.3 µM | [15] 4.08 µM | [16] 39.4 µM | [17] 5.07 µM | [18] 15.8 µM

C[n+]1c2ccccc2c(C(=O)NC(CCCNC(=N)N)C(=O)O)c2ccccc21 (configuration not stated)
inactive: [19] > 100 µM | [1] > 100 µM | [2] > 100 µM | [3] > 100 µM | [4] > 100 µM | [5] > 100 µM | [6] > 100 µM | [7] > 100 µM | [8] > 100 µM | [9] > 100 µM | [10] > 100 µM | [12] > 100 µM | [13] > 100 µM | [14] > 100 µM | [16] > 100 µM | [17] > 100 µM | [18] > 100 µM
